Experimental findings from paper PMC6940900, “Antiviral Activity of Benzoic Acid Derivative NC-5 Against Influenza A Virus and Its Neuraminidase Inhibition” (International Journal of Molecular Sciences, 2019) are described below.

The target of assay [1] is NA of A/Anhui/1/2013 (H7N9) (Influenza A virus (A/Anhui/1-BALF_RG1/2013(H7N9)), UniProt A0A024E3Q2). Type of assay: cell-based.
For assay [2], the target named is NA of A/Vietnam/1203/2004 (H5N1) (Influenza A virus (A/Viet Nam/1203/2004(H5N1)), UniProt Q6DPL2). The assay is described as follows: cell-based.

A value given as a limit tells only on which side of the number the result lay.

What is called IC50 is the concentration at which inhibition is half-maximal. Consider `O=C(O)c1ccc(N2C(=O)CCC2(CO)CO)c(Nc2nnc(C3CCCCC3)[nH]2)c1` [compound 5], for which the IC50 in assay [1] and in assay [2] was greater than 480 µM throughout.
